In one data set the test system is mouse. Put plainly: passive prevention (memory) in mouse. Particulars: 50 mgr/kg intraperitoneally. The data set is classed as in vivo. From the text: This product and very likely other compounds of the invention thus improve mnesic retention.
For data set [1], the system named is convulsions induced by bicuculline. Put plainly: in vivo. Particulars: for bicuculline (score: sum of animals protected by dosages of 10 and 100 mgr/kg): oral, 5 mice each, 3 hours before bicuculline 0.6 mgr/kg i.v., tonic convulsions; for ED50: Mus musculus; for DL50/DE50 (therapeutical index): Table III. As to the method: The anticonvulsive effect was examined for tonic convulsions induced by bicuculline. The compounds of the invention were administrated orally at dosages of 10 and 100 mgr/kg, each to 5 mice, 3 hours before intravenous injection of bicuculline at the dosage of 0.6 mgr/kg. The number of mice protected against tonic convulsions and the number of dead mice were noted.
Amongst the substances according to the invention, 2-n-pentylaminoacetamideand its hydrochloride were more particularly studied. […] The hydrochloride was also administered intravenously. […] Table III also gives the therapeutical index (LD50/ED50).

The next data set in a line: in vivo. Particulars: mouse, in vivo, po, read-out: DL50 (the source's name).
A further data set relates to platelet agglutination. Put plainly: inhibition of platelet agglutination in human plasma (turbidimetric method of Born and Cross, Trombofax). The data set is classed as cell-based. The conditions noted are these: human plasma rich in platelets, preincubated 3 minutes before Trombofax. How it is done: The measure of the inhibition of platelet agglutination is made according to the turbidimetric method of G. V. R. Born and M. J. Cross (J. Physiol. 168, 178, […]). The plasma rich in platelets is preincubated for 3 minutes before introduction of the inductor agent, Trombofax. The inhibion of the maximum amplitude of agglutination is measured by means of Upchurch agglutometer. In this test, compounds 1, 11, 14 and 18 have shown as being active.

Another data set has as its system GABA-T. Put plainly: GABA-T activity after oral administration in rat. The data set is classed as in vivo. The conditions noted are these: 200 mgr/kg per os.
The test system of a further data set is GAD. Put plainly: GAD activity after oral administration in rat. The conditions noted are these: 200 mgr/kg per os. The data set is classed as in vivo.
Data set [2] has as its system convulsions due to picrotoxine. Put plainly: convulsions due to picrotoxine. The conditions noted are these: in vivo. From the text:
(3) 2-n-pentylaminoacetamide hydrochloride has no effect on the convulsions due to picrotoxine.

Data set [3] deals with GABA rate of the black substance. Put plainly: GABA rate of the black substance after oral administration in rat. It is filed as in vivo. Particulars: 200 mgr/kg per os, 4 hours after treatment.
The subject of data set [4] is decarboxylase glutamate (GAD). Put plainly: activity of decarboxylase glutamate (GAD) in homogenizates of rat brain. The data set is classed as biochemical. Particulars: 10^-4 M. How it is done:
The substances of the invention have the property of inhibiting convulsions induced by bicculline in mouse. […] As a matter of fact, bucuculline is a specific antoganist of GABA. Besides, the effect of the products on the activity of the GABA synthesis enzyme, decarboxylase glutamate (GAD), was studied. The activity of the GAD was determined in homogenizates of rat brain according to the method described by L. Parker (Methods in Enzymology, Ed. S. Fleischer, 1974, Vol. XXXII, part V., p. 779). […] In general, the products of the invention […] the activity of the […] (GABA-T), enzyme of GABA catabolism, which results in an increase of the GABA levels at the level of GABA-ergic neurons.

The subject of data set [5] is accumulation of lactate in the brain. Put plainly: cerebral anoxia caused by decapitation of rat: lactate in the brain. The conditions noted are these: first seconds of anoxia caused by decapitation. It is filed as in vivo. From the text: This activity very likely explains itself by an effect on the cerebral energetic metabolism during anoxia. This effect on the cerebral energetic metabolism has been confirmed for 2-n-pentylaminoacetamide hydrochloride in a series of experiments on cerebral anoxia caused by decapitation of rat.

The subject of a further data set is mice. Put plainly: in vivo. The conditions noted are these: oral, mice; Table II.
Data set [6] has as its system convulsions due to leptazol. Put plainly: convulsions due to leptazol in mouse. It is filed as in vivo.
Data set [7] deals with central serotoninergic system. Put plainly: potentiation of the effects of 1-trypthophan in mouse. It is filed as in vivo.
Data set [8] has as its system convulsions induced by strychnine. Put plainly: convulsions induced by strychnine. The conditions noted are these: in vivo.

Like-named read-outs stand apart in the source and are kept apart here.

Regarding `CCCCCCCCNCC(N)=O` [Compound 1, 2-n-octylaminoacetamide], the “behaviour extinction in passive prevention” value in the data set on mouse is “delayed the behaviour extinction”. Further, the “bicuculline (score: sum of animals protected by dosages of 10 and 100 mgr/kg)” value in data set [1] was determined as 4. For the same compound, in “in vivo” (mice, Table II), the LD50 is 2220 mg/kg. Also, the “inhibition of platelet agglutination” value with platelet agglutination is “active”.
For the compound `CCCCCNCC(N)=O.Cl` [Compound 33, 2-n-pentylaminoacetamide hydrochloride], the “effect on GABA-T” value in the data set with GABA-T was “without modifying”. In the data set on GAD, the “potentiation of the GAD activity” value is reported as 26%. Besides, in [2], the “effect on the convulsions due to picrotoxine” value is listed as “no effect”. Besides, the ED50 in [1] (iv) came to 2.19 mg/kg; in data set [1] (iv, 3 h, read-out: DE50), 5.74 mg/kg; in [1] (po), 5.74 mg/kg. In addition, the “absorption from the intestinal tractus” value in data set [1] (mouse, in vivo) is on record as “excellent absorption from the intestinal tractus”. Moreover, in data set [1] (mouse), the “DL50/DE50 (therapeutical index)” value came out at 390. The “bicuculline (score: sum of animals protected by dosages of 10 and 100 mgr/kg)” value in data set [1] came to 6. Further, the LD50 in the data set “in vivo” (mice, Table II) was determined as 2880 mg/kg; in the data set “in vivo” (Table III), 2240 mg/kg. In data set [3], the “increase of GABA rate of the black substance” value is 38%. In addition, the “effect on the activity of GAD” value in data set [4] was “particularly remarkable”. Further, the “accumulation of lactate in the brain” value in [5] is given as “prevents accumulation of lactate in the brain”.
Turning to `CCCCCNCC(N)=O` [Compound 3, 2-n-pentylaminoacetamide], the ED50 in data set [1] (iv, 3 h, read-out: DE50) stood at 11.2 mg/kg; in [1] (po), 11.2 mg/kg. Moreover, in [1] (increased bicuculline doses), the “antagonist action against convulsions due to bicuculline on increase of the bicuculline doses” value was “may be overcome by an increase of the bicuculline doses”. Also, the competition with bicuculline result in data set [1] (mouse, in vivo) is “competes with bicuculline”. Besides, the “DL50/DE50 (therapeutical index)” value in data set [1] (mouse) is 172. The “bicuculline (score: sum of animals protected by dosages of 10 and 100 mgr/kg)” value in data set [1] was 7. Also, the DL50 with mice amounted to 1925 mg/kg. Further, in data set [6], the “inhibition of convulsions due to leptazol” value is “only slightly inhibits”. Moreover, in [4], the “effect on the activity of GAD” value is “particularly remarkable”. Besides, the “effect on the effects of 1-trypthophan” value in [7] is recorded as “potentiates the effects of 1-trypthophan”. Besides, the “activity against convulsions induced by strychnine” value in data set [8] is “inactive”.

These data come from US4639468A, “Derivatives of glycinamide, their preparation and their use” (priority 1979, dated 1987).
